Source: patent US20230338463A1, “ICD PEPTIDE AND USE THEREOF FOR HAVING CYTOTOXIC ACTIVITY ON CANCER CELLS” (NATIONAL TSING HUA UNIVERSITY, priority 2022, published 2023)
Non-standard residues stand in square brackets, D forms with d. Residues, ends and D or L forms follow the SMILES beside them. 2Nal = N[C@@H](Cc1ccc2ccccc2c1)C(=O)O

What was measured:
[1] = test system: CGNHC9 cells (oral squamous cell carcinoma); settings: human, 24 h
Text: (§1) Three non-small cell lung cancer cell lines (H1975, A549, PC9) and two oral cancer cell lines (CGNHC9, OECM-1) were used in the present invention. H1975 is the non-small cell lung carcinoma tissue, A549 is the adenocarcinomic alveolar basal epithelial cells and PC9 is the non-small cell lung cancer with EGFR mutation. CGNHC9 and OECM-1 cell lines refer to oral squamous cell carcinoma and gingival epidermoid carcinoma respectively. The abovemetioned cell lines were derived from human origin and being cultured in the humidified incubator containing 5% CO2 at 37° C. CGNHC9 cell line was cultured in Dulbecco’s modified Eagle’s medium (GIBCO Life Technologies Corporation, NY, USA) with 10% fetal bovine serum (FBS), 2 mM L-glutamine and 1% penicillin/ streptomycin and Roswell Park Memorial Institute 1640 (RPMI 1640, GIBCO Life Technologies Corporation, NY, USA) medium with 10% fetal bovine serum (FBS), 2 mM L-glutamine and 1% penicillin/ streptomycin was used as the culture medium for the rest of the cell lines.
(§2) The anticancer activity of ICD peptides include, not limited, SEQ ID NO: 1 and its derivative peptides (SEQ ID NO: 2, SEQ ID NO: 3, SEQ ID NO: 4, and SEQ ID NO: 5) was using the 3-(4,5-Dimethyl-2-thiazolyl)-2,5-diphenyl-2H-tetrazolium bromide (MTT, Sigma Aldrich, St. Louis, MO, USA) colorimetric assay for cell viability test. The cells include, not limited, H1975, A549, PC9, CGNHC9, OECM-1, MN-11 and HFW cells/cell lines.
(§3) The cells were seeded in the 96-well plate at 5000 cells/well under the environment of humidified 5% CO2 and the temperature of 37° C. for 24 hours. The medium was removed from the well before the fresh medium containing different concentrations of ICD peptides was added and incubated for 24 hours. Medium with PBS solution was used as control group. All ICD peptides were diluted serially from 100 µM to 0.78 µM in ddH2O before adding in the medium. After 24 hours of ICD peptide treatment, fresh medium with 10% MTT solution (5 mg/mL) was incubated for additional 4 hours in advance of dissolving the formazan crystal in 100 µL DMSO (Dimethyl sulfoxide, Sigma Aldrich) solution. The calculation of cell survival rate was completed by measuring the absorbance at 570 nm using microplate reader (TECAN Sunrise ELISA Reader).
(§4) The cell survival was calculated from the treated cells relative to the control (100% viable cells) using the mean of three independent experiments and expressed as a 50% inhibitory concentration (IC50).
(§5) The percentage of cell viability was calculated using the following formula: […]
(§6) The half inhibition concentration (IC50) is the concentration required by the drug to reach fifty percent inhibition. In one embodiment, the SEQ ID NO: 1 and its derivative peptides (SEQ ID NO:2, SEQ ID NO:3, SEQ ID NO:4, SEQ ID NO: 5) was used for IC50 test via MTT colorimetric assay.

[2] = test system: OECM-1 cells (gingival epidermoid carcinoma); settings: human, 24 h
Text: as §1, §2, §3, §4, §5, §6

[3] = test system: PC9 cells (non-small cell lung cancer with EGFR mutation); settings: human, 24 h
Text: as §1, §2, §3, §4, §5, §6

PC 9 cells = assay: Extracellular cytochrome c ELISA, PC 9; format: cell-based, human; settings: PC 9, 2-fold IC50, time not stated
Protocol: The cytochrome c release was a part of mitochondrial damage-associated molecular patterns, therefore the amount of cytochrome c released into supernatant were measured by cytochrome c ELISA assay.
The cells were washed three times using PBS solution to remove all serum components and 1× 10^6 cells/ mL was solubilised in ice-cold 0.5% Triton-X 100-PBS solution at 2-8° C. for 10 minutes. Then, the speed of 16,000 xg was applied to centrifuge the extract for another 10 minutes, and serially dilute the aliquot of supernatant collected with Calibrator Diluent RD5-18 as described in the manufacturer’s protocol.
Quantifying the volume of cytochrome c released and the results were presented in FIGS. 7A-7C via ELISA assay for 0.5, 1, 1.5, and 2 hours. SEQ ID NO:4 group induced a relatively high amount of cytochrome c compared to SEQ ID NO:3 group and SEQ ID NO: 5 group. The cytochrome c release for SEQ ID NO:4 group was double the amount of SEQ ID NO:3 group and SEQ ID NO: 5 group. The trend of cytochrome c release in SEQ ID NO:4 and SEQ ID NO:3 treated PC 9 cells were escalating from 30 minutes to 4 hours, in contrast the SEQ ID NO: 5 group has fluctuating trend. […] The highest amount of cytochrome c detected in the supernatant for SEQ ID NO:3 and SEQ ID NO: 5 were around 3.5 ng/mL and lower than 2 ng/mL for the least.

MN-11 cells = assay: PI/Hoechst 33342 staining, plasma membrane integrity; format: cell-based, murine; settings: MN-11, 2× IC50, 2 hrs, data not shown
Protocol: To examine the membrane-lytic activities of peptides, the PI/Hoechst 33342 staining was performed in this embodiment. The PI dye was used to stain damaged/dead cells, and Hoechst 33342 was used to specifically stain the nuclei of living cells. MN-11 cells were seeded at 50,000 cells/well in a RPMI medium and allowed to adhere for 24 hours. Then the cells were replaced with serum-free RPMI medium, and then treated with 2× IC50 peptides at 37° C. for 2 hrs. DMEM medium without peptide was used as negative control. The PI and Hoechst 33342 were added at a final concentration of 1 µg/ml for 20 mins. The cells were observed using the inverted fluorescent microscope Zeiss equipped with a 40× oil objective lens (Carl Zeiss, Germany). The experiments were repeated three times independently
To examine the membrane-lytic activities of Nal-P-113, Bip-P-113, and Dip-P-113, the DNA binding fluorescent dye Propidium iodide (PI) was used to stain damaged/dead cells, and Hoechst 33342 was used to specifically stain the nuclei of living cells.

With `CC(=O)N[C@@H](C)C(=O)N[C@@H](CCCCN)C(=O)N[C@@H](CCCNC(=N)N)C(=O)N[C@@H](Cc1ccc2ccccc2c1)C(=O)N[C@@H](Cc1ccc2ccccc2c1)C(=O)NCC(=O)N[C@@H](Cc1ccc(O)cc1)C(=O)N[C@@H](CCCCN)C(=O)N[C@@H](CCCNC(=N)N)C(=O)N[C@@H](CCCCN)C(=O)N[C@@H](Cc1ccccc1)C(=O)N[C@@H](Cc1ccc2ccccc2c1)C(N)=O` [SEQ ID NO:3, Ac-AKR Nal Nal GYKRKFNal-NH2] (Ac-AKR[2Nal][2Nal]GYKRKF[2Nal]-NH2) the cell viability percentage [1] was “lower than 20%”, the cell viability percentage [2] was “lower than 20%” and the cell viability percentage [3] was “lower than 20%”. The “highest amount of cytochrome c detected in the supernatant” value (PC 9 cells) was “around 3.5 ng/mL” and the “plasma membrane integrity (PI entering cells)” value (MN-11 cells) was “can cause damage to the plasma membrane integrity”.
